From US20250154193A1, “STEROID COMPOUND, AND PREPARATION METHOD THEREFOR AND APPLICATION THEREOF” (CHOLESGEN (SHANGHAI) CO., LTD., priority 2022, published 2025)

Legend:
[1] = system: SREBP pathway; experiment: SREBP luciferase reporter gene system (SRE-luciferase assay) in Huh-7/SRE-Luc cells; format: cell-based; details: Homo sapiens, sterol-deficient medium, compound treatment 16 hours, luciferase/GFP ratio
Experimental: Huh-7/SRE-Luc, a human hepatocellular carcinoma cell line, was grown in a culture medium containing DMEM, 10% fetal bovine serum, 100 units/mL penicillin, 100 µg/mL streptomycin, and 200 μg/mL G418.
The Huh-7/SRE-Luc cell line is a human hepatocellular carcinoma cell line Huh-7 stably expressing LDLR promoter-luciferase and green fluorescent protein (GFP). The LDLR promoter region contains a sterol regulatory element (SRE) that can effectively and sensitively respond to the regulation of the transcription factor SREBP. The GFP signal serves as an internal reference to indicate changes in cell number. Therefore, this cell line can be used to screen for active small molecules that regulate the SREBP signaling pathway. […] Cells were incubated in a sterol-deficient medium (5% lipoprotein-deficient serum, 2 μM Lovastatin, 10 μM mevalonate) and treated with corresponding concentrations of compounds for 16 hours. After compound treatment, the cells were lysed with lysis buffer (E397A, Promega), followed by the addition of luciferase substrate (E1500, Promega). The SRE-driven luciferase activity was measured using a BioTek Synergy HTX microplate reader (including but not limited to this type of instrument). The fluorescence intensity of enhanced green fluorescent protein (EGFP) was also measured using the BioTek microplate reader (including but not limited to this type of instrument) and used as an internal reference. The ratio of SRE-driven luciferase activity to GFP fluorescence intensity was used as an indicator of SREBP pathway activity. The test data of each test compound was analyzed using Prism software to obtain the IC50 parameter of the compound.
The inhibitory effect of the compounds of the present disclosure on the SREBP pathway was tested by the method of bioassay example 2. The concentration gradient of each compound was designed as 0.01, 0.03, 0.1, 0.3, 1.0, 3.0, and […], with DMSO as a vehicle control.

[2] = Liver microsomal metabolic stability assay; format: in vitro ADME; details: rat liver microsomes, NADPH, 37° C., 0-60 minutes; read-out: Rat microsomal metabolic half-life (t1/2)
Experimental: PBS solution (100 mM), MgCl2 solution (100 mM), and NADPH solution (20 mM) were prepared respectively. Compound and testosterone (positive control) stock solutions were then prepared with dimethyl sulfoxide (DMSO), diluted to 100 µM with methanol for sample incubation, and stored at −10 to −30° C. 12.5 μL of rat liver microsomes (purchased from XenoTech, Cat. No.: R1000, Lot No.: 1310030, specification: 20 mg/mL), 432.5 µL of PBS solution (100 mM), 25 µL of NADPH solution (20 mM), and 25 μL of MgCl2 solution (100 mM) were added to a 96-well plate, mixed well, and pre-incubated at 37° C. for 5 minutes. 5 µL of substrate (test compound) solution was added to start the reaction. At specified time points of 0, 5, 15, 30, 45, and 60 minutes (0 and 60 minutes for the negative control group), 50 µL of the incubated samples were added to a stop plate containing 100 µL of ice-cold stop solution, vortexed for 1 minute to inactivate the reaction, and stored at −60 to −90° C. for subsequent analysis. Sample analysis of the test compound and the control compound testosterone was performed using LC-MS/MS method. Chromatographic peaks were integrated, calculated, and processed using Analyst software. Semi-quantitative analysis was performed for both the test compound and the control compound testosterone by calculating peak area ratios.

SMILES | IC50 [1] | half-life at 1 µM [2]
C[C@H](CCCC(C)(C)O)[C@H]1CC[C@H]2[C@@H]3CC[C@H]4[C@@H](O)[C@@H](O)CC[C@]4(C)[C@H]3CC[C@]12C [compound 198, 5α-Cholest-30,40,25-triol] | 0.106 µM | 1.2 h
C[C@H](CCCC(O)c1c(F)cc(F)cc1F)[C@H]1CC[C@H]2[C@@H]3CC[C@H]4[C@@H](O)[C@@H](O)CC[C@]4(C)[C@H]3CC[C@]12C (stereo partly drawn) [compound 275, 24-[(2,4,6-difluorophenyl)(hydroxy)methyl]-5α-cholan-3β,4β-diol] | 0.141 µM | 1.52 h
C[C@H](CCC[C@@H](O)c1ccccc1F)[C@H]1CC[C@H]2[C@@H]3CC[C@H]4[C@@H](O)[C@@H](O)CC[C@]4(C)[C@H]3CC[C@]12C (single isomer, unassigned) [compound 279, 24-[R-(2-fluorophenyl)(hydroxy)methyl]-5α-cholan-30,40-diol or 24-[S-(2-fluorophenyl)(hydroxy)methyl]-5α-cholan-30,40-diol] | 0.196 µM | 0.922 h
COc1ccccc1C(O)CCC[C@@H](C)[C@H]1CC[C@H]2[C@@H]3CC[C@H]4[C@@H](O)[C@@H](O)CC[C@]4(C)[C@H]3CC[C@]12C (stereo partly drawn) [compound 287, 24-[Hydroxy(2-methoxyphenyl)methyl]-5α-cholan-30,40-diol] | 0.159 µM | 1.27 h
C[C@H](CCCC(O)c1cccc(F)c1)[C@H]1CC[C@H]2[C@@H]3CC[C@H]4[C@@H](O)[C@@H](O)CC[C@]4(C)[C@H]3CC[C@]12C (stereo partly drawn) [compound 281, 24-[(3-fluorophenyl)(hydroxy)methyl]-5α-cholan-3β,4β-diol] | 0.111 µM | 1.17 h
C[C@H](CCCC(C)(C)O)[C@H]1CC[C@H]2[C@H]3[C@H](CC[C@]12C)[C@@]1(C)CC[C@H](O)[C@H](O)[C@@H]1CC3(F)F [compound 274, (1R,3aS,3bS,5aR,6R,7S,9aR,9bS,11aR)-4,4-difluoro-1-[(2R)-6-hydroxy-6-methylheptan-2-yl]-9a,11a-dimethylhexadecahydro-1H-cyclopenta[1,2-a]phenanthrene-6,7-diol] | 0.313 µM | > 3.1 h
C[C@H](CCCC(O)c1c(F)cccc1F)[C@H]1CC[C@H]2[C@H]3[C@H](CC[C@]12C)[C@@]1(C)CC[C@H](O)[C@H](O)[C@@H]1CC3(F)F (stereo partly drawn) [compound 300, (1R,3aS,3bS,5aR,6R,7S,9aR,9bS,11aR)-1-[(2R)-6-(2,6-difluorophenyl)-6-hydroxyhexan-2-yl]-4,4-difluoro-9a,11a-dimethylhexadecahydro-1H-cyclopenta[1,2-α]phenanthrene-6,7-diol] | 0.036 µM | 0.402 h
C[C@H](CCCC(O)c1ccccc1OC(F)(F)F)[C@H]1CC[C@H]2[C@@H]3CC[C@H]4[C@@H](O)[C@@H](O)CC[C@]4(C)[C@H]3CC[C@]12C (stereo partly drawn) [compound 317, 24-(hydroxy{2-[(trifluoromethyl)oxy]phenyl}methyl)-5α-cholan-3β,4β-diol] | 0.14 µM | 2.28 h
C[C@H](CCCC(C)(C)O)[C@H]1CC[C@H]2[C@@H]3CC[C@H]4[C@H](O)[C@@H](O)CC[C@]4(C)[C@H]3CC[C@]12C [compound 204, 5α-cholest-3β,4α,25-triol] | 0.395 µM | 3.97 h
C[C@H](CCCC(O)c1c(F)cccc1F)[C@H]1CC[C@H]2[C@@H]3CC[C@H]4[C@@H](O)[C@@H](O)CC[C@]4(C)[C@H]3CC[C@]12C (stereo partly drawn) [compound 284, 24-[(2,6-difluorophenyl)(hydroxy)methyl]-5α-cholan-3β,4β-diol] | 0.0874 µM | > 2 h
C[C@H](CCCC(O)c1c(F)cccc1F)[C@H]1CC[C@H]2[C@@H]3CC[C@H]4C(=O)[C@@H](O)CC[C@]4(C)[C@H]3CC[C@]12C (some centres unmarked) [compound 298] | 0.028 µM | 0.316 h
C[C@H](CCCC(C)(C)O)[C@H]1CC[C@H]2[C@@H]3CC[C@H]4C(=O)[C@@H](O)CC[C@]4(C)[C@H]3CC[C@]12C [compound 238, 3β,25-Dihydroxy-5α-cholest-4-one] | 0.049 µM | 1.26 h
C[C@H](CCCC(C)(C)O)[C@H]1CC[C@H]2[C@@H]3CC[C@H]4C[C@@H](O)CC[C@]4(C)[C@H]3CC[C@]12C [compound 185, cholest-3β,25-diol] | 0.233 µM | 3.17 h
C[C@H](CCCC(C)(C)O)[C@H]1CC[C@H]2[C@H]3[C@H](CC[C@]12C)[C@@]1(C)CC[C@H](O)C(=O)[C@@H]1CC3(F)F [compound 302, (1R,3aS,3bS,5aR,7S,9aR,9bS,11aR)-4,4-difluoro-7-hydroxy-1-[(2R)-6-hydroxy-6-methylheptan-2-yl]-9a,11a-dimethylhexadecahydro-1H-cyclopenta[1,2-α]phenanthren-6-one] | 0.035 µM | 0.979 h
C[C@H](CCCC(C)(C)O)[C@H]1CC[C@H]2[C@@H]3CC[C@H]4C(C)(O)[C@@H](O)CC[C@]4(C)[C@@]3(C)CC[C@]12C (stereo partly drawn) [compound 254, 4-methyl-5α-cholest-3β,4,25-triol] | 6.19 µM | –
C[C@H](CCCC(O)C(F)(F)F)[C@H]1CC[C@H]2[C@@H]3CC[C@H]4C[C@@H](O)CC[C@]4(C)[C@H]3CC[C@]12C (stereo partly drawn) [compound 218, 24-(2,2,2-trifluoro-1-hydroxyethyl)-5α-cholan-3β-ol] | 0.296 µM | –
C[C@H](CCCC(C)(O)c1ccccc1F)[C@H]1CC[C@H]2[C@@H]3CC[C@H]4[C@@H](O)[C@@H](O)CC[C@]4(C)[C@H]3CC[C@]12C (stereo partly drawn) [compound 278, 24-[1-(2-fluorophenyl)-1-hydroxyethyl]-5α-cholan-3β,4β-diol] | 0.106 µM | –
C[C@H](CCCC(O)c1ccccc1F)[C@H]1CC[C@H]2[C@@H]3CC[C@H]4C[C@@H](O)CC[C@]4(C)[C@H]3CC[C@]12C (stereo partly drawn) [compound 251, 24-[(2-fluorophenyl)(hydroxy)methyl]-5α-cholan-3β-ol] | 0.321 µM | –
C[C@H](CCCC(O)c1cc(F)cc(F)c1)[C@H]1CC[C@H]2[C@@H]3CC[C@H]4[C@@H](O)[C@@H](O)CC[C@]4(C)[C@H]3CC[C@]12C (stereo partly drawn) [compound 282, 24-[(3,5-difluorophenyl)(hydroxy)methyl]-5α-cholan-3β,4β-diol] | 0.117 µM | –
C[C@H](CCCC(C)(C)O)[C@H]1CC[C@H]2[C@@H]3C[C@@H](O)[C@H]4C[C@@H](O)CC[C@]4(C)[C@H]3CC[C@]12C [compound 206, cholest-3β,6,25-triol] | 0.464 µM | –
C[C@H](CCCC(O)c1c(F)cccc1F)[C@H]1CC[C@H]2[C@@H]3C(N)C[C@H]4[C@@H](O)[C@@H](O)CC[C@]4(C)[C@H]3CC[C@]12C (stereo partly drawn) [compound 299, 7-amino-24-[(2,6-difluorophenyl)(hydroxy)methyl]-5α-cholan-3P,4β-diol] | 4.83 µM | –
C[C@H](CCCC(C)(C)O)[C@H]1CC[C@H]2[C@@H]3C(=O)C[C@H]4C[C@@H](O)CC[C@]4(C)[C@H]3CC[C@]12C [compound 216, 3P,25-dihydroxy-5α-cholest-7-one] | 0.379 µM | 0.385 h
C[C@H](CCCC(C)(C)O)[C@H]1CC[C@H]2[C@@H]3CC(=O)[C@H]4C[C@@H](O)CC[C@]4(C)[C@H]3CC[C@]12C [compound 255, 3P,25-dihydroxy-5α-cholest-6-one] | 0.452 µM | –
